The assay concerns the target Caspase-3 (Homo sapiens) + Caspase-9 (Homo sapiens) (UniProt P42574+P55211). Nature of the assay: CASP3 and CASP9 cascade activity modulators, specificity counterscreen for apoptotic protease activating factor 1 activator project, concentration-response, cell-free, fluorescence, leucine zipper CASP9, ultra-HTS actives (AID 588573). The settings on record: LZ-caspase-9/caspase-3 coupled fluorogenic activity assay. On the technique in general: The purpose of a counterscreen is to sort out artefacts and off-target activity.

Active and inactive are the calls of the source. The rule behind the calls is not given here.

Caspase-3 (Homo sapiens) + Caspase-9 (Homo sapiens), sequence (P42574 whole entry, looked up): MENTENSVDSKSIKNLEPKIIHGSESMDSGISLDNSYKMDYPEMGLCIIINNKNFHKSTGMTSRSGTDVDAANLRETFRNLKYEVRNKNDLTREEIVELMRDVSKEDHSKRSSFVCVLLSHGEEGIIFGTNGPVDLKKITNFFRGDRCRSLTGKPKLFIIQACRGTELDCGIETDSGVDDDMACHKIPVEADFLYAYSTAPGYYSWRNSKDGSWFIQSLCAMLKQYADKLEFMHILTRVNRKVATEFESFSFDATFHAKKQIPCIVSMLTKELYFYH
Caspase-3 (Homo sapiens) + Caspase-9 (Homo sapiens), sequence (P55211 whole entry, looked up): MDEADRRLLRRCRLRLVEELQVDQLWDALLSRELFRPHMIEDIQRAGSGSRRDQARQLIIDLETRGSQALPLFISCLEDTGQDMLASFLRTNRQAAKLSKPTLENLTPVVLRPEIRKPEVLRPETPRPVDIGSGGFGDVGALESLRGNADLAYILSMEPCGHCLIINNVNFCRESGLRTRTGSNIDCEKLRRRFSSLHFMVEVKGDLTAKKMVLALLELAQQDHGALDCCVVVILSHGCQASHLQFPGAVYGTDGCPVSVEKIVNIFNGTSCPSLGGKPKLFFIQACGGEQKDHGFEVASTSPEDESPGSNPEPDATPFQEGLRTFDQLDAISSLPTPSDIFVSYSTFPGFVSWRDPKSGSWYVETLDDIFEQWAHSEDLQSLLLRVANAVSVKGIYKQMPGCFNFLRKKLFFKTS

As for `O=C(Nc1nc2ccsc2c(=O)s1)c1ccco1`, the EC50 (in general, the concentration at which the effect is half-maximal) was > 100 µM (inactive).
The same measure, in the same setting: to `CC(/C=C\c1cccnc1)=C/C(=O)O` belongs > 100 µM (inactive); to `CCOc1ccccc1NC(=O)CCS(=O)(=O)c1ccc(Br)cc1`, > 100 µM (inactive).
Still for that read-out and setting: the value for `C=CC1=C(C(=O)O)N2C(=O)[C@@H](NC(=O)/C(=N\OCC(=O)O)c3csc(N)n3)[C@H]2SC1` was > 100 µM (inactive).
On the same count and under the same terms, to `C=C(C)C(=O)Nc1cccc(C2=NOC3(C2)C[C@H](C(N)=O)N(C(=O)c2ccccc2)C3)c1` (some centres undefined) belongs > 100 µM (inactive).
Regarding `C=C(C)C(=O)Nc1cccc(C2=NOC3(C2)C[C@@H](C(N)=O)N(C(=O)/C(C)=C/C)C3)c1` (some centres undefined), the EC50 was > 100 µM (inactive).
Take `O=C(CCS(=O)(=O)c1ccc(Br)cc1)NCc1ccco1`: the EC50 is > 100 µM (inactive).
As for `CC(C)(CS(=O)(=O)[O-])NC(=O)CC[N+](C)(C)CCO`, the EC50 is > 100 µM (inactive).
With `CC(Cc1c[nH]c2ccccc12)C(=O)O` (centres undefined), the EC50 is > 100 µM (inactive).
`COc1ccc(/C=C2\SC(=S)N(CCC(=O)Nc3ccc(C(=O)O)cc3)C2=O)cc1OC`: the IC50 (inhibition of caspase signal) is 14.6 µM.
`C=CC1=C(C(=O)O)N2C(=O)[C@@H](NC(=O)/C(=N/OCC(=O)O)c3csc(N)n3)[C@H]2SC1`: the EC50 is > 100 µM (inactive).
The same measure, in the same setting: to `CC(CNc1ccccc1O)C(=O)O` (centres undefined) belongs > 100 µM (inactive); to `CCN(CC)CCOc1ccc2c(c1)C(=NNC(=O)c1ccccn1)c1cc(OCCN(CC)CC)ccc1-2`, > 100 µM (inactive); to `COC(=O)c1ccccc1-c1ccc(/C=C2\C(=O)N(c3ccccc3)N=C2c2ccccc2)o1`, > 100 µM (inactive).
With `Cc1cc(C)n(CC(C)C(=O)O)n1` (centres undefined), the EC50 was > 100 µM (inactive).
Take `C=C(C)C(=O)Nc1cccc(C2=NOC3(C2)C[C@@H](C(N)=O)N(C(=O)/C=C/C=C/C)C3)c1` (some centres undefined): the EC50 is > 100 µM (inactive).
In the case of `O=C1C2(CCCC13COC(c1ccc(O)cc1)OC3)COC(c1ccc(O)cc1)OC2` (centres undefined), the EC50 was > 100 µM (inactive).
As for `C=C(C)C(=O)Nc1cccc(C2=NOC3(C2)C[C@@H](C(N)=O)N(C(=O)CCCCC)C3)c1` (some centres undefined), the EC50 is > 100 µM (inactive).
Still for that read-out and setting: the value for `C=C(C)C(=O)Nc1cccc(C2=NOC3(C2)C[C@@H](C(N)=O)N(C(=O)/C=C/CC)C3)c1` (some centres undefined) was > 100 µM (inactive); that for `C=C(C)C(=O)Nc1cccc(C2=NOC3(C2)C[C@H](C(N)=O)N(C(=O)/C=C/C)C3)c1` (some centres undefined) was > 100 µM (inactive).
Regarding `CCc1ccc(N=C2NC(=O)/C(=C/c3cc(Br)c(OCC(=O)O)c(OC)c3)S2)cc1`, the IC50 (inhibition of caspase signal) is 23.6 µM.
As to `COc1cc([N+](=O)[O-])ccc1NC(=O)COC(=O)c1ccc(NC(N)=O)cc1`, the EC50 was > 100 µM (inactive).
For `N#C/C(=C\c1ccc(OCc2ccc(Cl)cc2)cc1)C(=O)Nc1cccc(C(=O)O)c1`, the IC50 (inhibition of caspase signal) was 15.6 µM.
Take `N#CCCn1cc(C(CC(=O)c2ccc(Br)cc2)C(=O)O)c2ccccc21` (centres undefined): the EC50 was > 100 µM (inactive).
Regarding `COc1ccc([N+](=O)[O-])cc1NC(=O)CCS(=O)(=O)c1ccc(Br)cc1`, the EC50 was > 100 µM (inactive).
Regarding `CCOc1ccc(C(=O)/C=C/Nc2ccc(S(=O)(=O)N=C(N)N)cc2)cc1`, the EC50 was > 100 µM (inactive).
The same measure, in the same setting: the value for `C=C(C)C(=O)Nc1cccc(C2=NOC3(C2)C[C@@H](C(N)=O)N(C(=O)C(=C)C)C3)c1` (some centres undefined) was > 100 µM (inactive); that for `C=C(C)C(=O)Nc1cccc(C2=NOC3(C2)C[C@@H](C(N)=O)N(C(=O)c2cc([N+](=O)[O-])cc([N+](=O)[O-])c2C)C3)c1` (some centres undefined) was > 100 µM (inactive); that for `C=C(C)C(=O)Nc1cccc(C2=NOC3(C2)C[C@H](C(N)=O)N(C(=O)c2ccccc2C(=O)c2ccccc2)C3)c1` (some centres undefined) was > 100 µM (inactive).

The record behind these values is PubChem BioAssay AID588573 (Sanford-Burnham Center for Chemical Genomics, 2011).
